Assay results reported in patent US7700584B2 (Hangzhou Minsheng Pharmaceuticals Co., Ltd., priority 2004, dated 2010).
In brackets after ≈: the same amount, converted by molar mass. Structures can show the parent of a compound that is named as a salt. Where two headings read alike, the source gives them in different places.

Legend:
[1] = system: HL-60 human promyelocytic leukemia; assay: In vitro anti-tumor IC50 (MTT), HL-60; type: cell-based; conditions: Homo sapiens, HL-60; Table 4; read-out: IC50 (ug/ml) against tumor cell lines, HL-60
Protocol: (§1) (1) Single cell suspension was seeded into 96-well plates (the cells was diluted in the PRMI-1640 minimum medium to 3×10^4 cells/ml, […] diluted cells/well). […] The experiments were performed in quadruplicate.
(§2) (2) The medium was removed. Solutions of the anti-tumor agents (50 compounds) were prepared in a freshly prepared medium at serial concentrations. […] of the solution was added into each well. Incubation was continued for 48 hours.
(§3) (3) 20 ug of 2 mg/ml MTT was added into each well, and incubated for 4 hours.
(§4) (4) The medium was removed from the well. The microplates were swiftly turned down to throw-off the medium. […] of DMSO was added into each well, and vortexed at room temperature for 10 minutes.
(§5) (5) OD value (λ=570 nm) was measured with an Enzyme-Linked Detector.
(§6) (6) The graph of cell vitality was plotted, and IC50 was calculated.

[2] = system: U-937 human histocytic lymphoma; assay: In vitro inhibition rate to tumor cells (MTT), U-937; type: cell-based; conditions: Homo sapiens, U-937, 50 μg/ml, read-out: inhibition rate, Results (%) U-937
[3] = system: MCF-7 human mammary adenocarcinoma; assay: In vitro anti-tumor IC50 (MTT), MCF-7; type: cell-based; conditions: Homo sapiens, MCF7; Table 4; read-out: IC50 (ug/ml) against tumor cell lines, MCF
Protocol: as §1, §2, §3, §4, §5, §6

[4] = system: Hela human cervical carcinoma; assay: In vitro inhibition rate to tumor cells (MTT), Hela; type: cell-based; conditions: Homo sapiens, HeLa, 50 μg/ml, read-out: inhibition rate, Results (%) Hela
[5] = system: A-549 human lung adenocarcinoma; assay: In vitro inhibition rate to tumor cells (MTT), A-549; type: cell-based; conditions: for inhibition at 50 µg/mL: Homo sapiens, A549, 50 μg/ml, read-out: inhibition rate, Results (%) A-549; for inhibition rate, Results (%) A-549: 50 μg/ml
[6] = system: HL-60 human promyelocytic leukemia; assay: In vitro inhibition rate to tumor cells (MTT), HL-60; type: cell-based; conditions: Homo sapiens, HL-60, 50 μg/ml, read-out: inhibition rate, Results (%) HL-60
[7] = target: T1, HIV-1 integrase (HIV-1 IN) (Human immunodeficiency virus type 1 group M subtype B, UniProt P04585); assay: Screening for the activity against HIV-1 integrase; type: biochemical; conditions: for inhibition at 100 µg/mL: initial concentration 100 μg/ml, read-out: IC50
T1 construct: a purified HIV-1 integrase was added into each well; purchased
How it was run: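 Purified HIV-1 integrase with plate-bound 30-nt donor oligonucleotide and biotinylated 20-nt target oligonucleotide; samples tested at four 5-fold serial dilutions. Strand-transfer product detected by ELISA with biotin-labeled alkaline phosphatase, read as OD450.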

[8] = system: SMMC-7721 human hepatic carcinoma; assay: In vitro inhibition rate to tumor cells (MTT), SMMC-7721; type: cell-based; conditions: for inhibition at 50 µg/mL: Homo sapiens, SMMC-7721, 50 μg/ml, read-out: inhibition rate, Results (%) SMMC-7721; for inhibition rate, Results (%) SMMC-7721: 50 μg/ml
[9] = system: Hela human cervical carcinoma; assay: In vitro anti-tumor IC50 (MTT), Hela; type: cell-based; conditions: Homo sapiens, HeLa; Table 4; read-out: IC50 (ug/ml) against tumor cell lines, Hela
[10] = system: U-937 human histocytic lymphoma; assay: In vitro anti-tumor IC50 (MTT), U-937; type: cell-based; conditions: Homo sapiens, U-937; Table 4; read-out: IC50 (ug/ml) against tumor cell lines, U-937
[11] = target: T2, HIV-1 reverse transcriptase (Human immunodeficiency virus type 1 group M subtype B, UniProt P04585); assay: Screening for the in vitro activity against the HIV-1 reverse transcriptase; type: biochemical; conditions: IC50, initial concentration 200 μg/ml
T2 construct: purchased
How it was run: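 Each sample, taken from DMSO through five 5-fold water dilutions, was incubated with recombinant RT and Biotin-dUTP substrate. Enzyme activity was quantified as biotin label incorporated into the plate-bound template, using streptavidin-HRP with absorbance at 450 nm.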

[12] = system: Bel-7402 human hepatic carcinoma; assay: In vitro inhibition rate to tumor cells (MTT), Bel-7402; type: cell-based; conditions: for inhibition at 50 µg/mL: Homo sapiens, Bel-7402, 50 μg/ml, read-out: inhibition rate, Results (%) Bel-7402; for inhibition rate, Results (%) Bel-7402: 50 μg/ml
[13] = system: LLC mouse Lewis lung carcinoma; assay: In vitro inhibition rate to tumor cells (MTT), LLC; type: cell-based; conditions: 50 μg/ml; for inhibition at 50 µg/mL: Mus musculus, Lewis lung carcinoma

| SMILES | IC50 [1] [µg/mL] | inhibition at 50 µg/mL ([2]; Table 1) [%] | inhibition at 50 µg/mL ([2]; Table 2 (repeated screening)) [%] | inhibition at 50 µg/mL ([2]; Table 3 (repeated screening)) [%] | IC50 [3] [µg/mL] | inhibition at 50 µg/mL ([4]; Table 1) [%] | inhibition at 50 µg/mL ([4]; Table 2 (repeated screening)) [%] | inhibition at 50 µg/mL ([4]; Table 3 (repeated screening)) [%] | inhibition at 50 µg/mL ([5]; Table 1) [%] | inhibition at 50 µg/mL ([5]; Table 2 (repeated screening)) [%] | inhibition at 50 µg/mL ([6]; Table 1) [%] | inhibition at 50 µg/mL ([6]; Table 2 (repeated screening)) [%] | inhibition at 50 µg/mL ([6]; Table 3 (repeated screening)) [%] | inhibition at 100 µg/mL [7] [%] | inhibition at 50 µg/mL ([8]; Table 1) [%] | inhibition at 50 µg/mL ([8]; Table 2 (repeated screening)) [%] | IC50 [9] [µg/mL] | IC50 [10] [µg/mL] | IC50 [11] [µM] | inhibition at 50 µg/mL ([12]; Table 1) [%] | further results |
| --- | --- | --- | --- | --- | --- | --- | --- | --- | --- | --- | --- | --- | --- | --- | --- | --- | --- | --- | --- | --- | --- |
| CC(C)C1CC23OC1(O)CC(=CN1CCNCC1)C2CCC3C (stereo not shown) [Compound 7, Curcumol piperazine] | 1.61 (≈ 5.02 µM) | 93 | 90 | 91.2 | 3.2 (≈ 9.99 µM) | 90.4 | 89.3 | 89.1 | 65.3 | 67.2 | 90.6 | 91 | 90.2 | < 50 | 3.34 | 1.23 | 0.6 (≈ 1.87 µM) | 0.76 (≈ 2.37 µM) | > 624 | 55.4 | inhibition at 50 µg/mL ([5]; Table 3 (repeated screening)): 65.3%; inhibition at 50 µg/mL ([12]; Table 2 (repeated screening)): 60.2%; inhibition at 50 µg/mL ([12]; Table 3 (repeated screening)): 65.2%; inhibition rate, Results (%) LLC ([13]; Table 1): 85.42%; inhibition rate, Results (%) LLC ([13]; Table 2 (repeated screening)): −2.99%; inhibition rate, Results (%) LLC ([13]; Table 3 (repeated screening)): −3.66% |
| CC(C)C1CC23OC1(O)CC(=CBr)C2CCC3C (stereo not shown) [Compound 17, Curcumol monobromide] | 1.85 | 87.2 | 85.1 | – | 4.63 | 91.6 | 92.4 | – | 4.68 | 5.23 | 92.3 | 90.1 | – | < 50 | 10.2 | 0.32 | 1.5 | 0.92 | > 634 | -12.4 | inhibition at 50 µg/mL ([12]; Table 2 (repeated screening)): -10.9%; inhibition at 50 µg/mL ([13]; Table 1): 7.27%; inhibition at 50 µg/mL ([13]; Table 2 (repeated screening)): 2.31% |
| C=C1CC2(OS(=O)(=O)O)OC3(CC2C(C)C)C(C)CCC13 (stereo not shown) [Compound 20, Curcumol sulfonate] | 0.45 | 89.2 | 90.3 | 90 | 4.98 | 94.2 | 90.6 | 92.5 | – | 13 | 91.3 | 92.4 | 91.7 | – | – | – | 0.89 | 0.95 | > 632 | 7.89 | inhibition rate, Results (%) A-549 ([5]; Table 1): 12.50%; inhibition rate, Results (%) A-549 ([5]; Table 3 (repeated screening)): 14.32%; IC50 [7]: 126 µM; inhibition rate, Results (%) SMMC-7721 ([8]; Table 1): 18.08%; inhibition rate, Results (%) SMMC-7721 ([8]; Table 2 (repeated screening)): 1.23%; inhibition rate, Results (%) SMMC-7721 ([8]; Table 3 (repeated screening)): 6.56%; inhibition rate, Results (%) Bel-7402 ([12]; Table 2 (repeated screening)): 5.36%; inhibition rate, Results (%) Bel-7402 ([12]; Table 3 (repeated screening)): 1.23%; inhibition rate, Results (%) LLC ([13]; Table 2 (repeated screening)): 9.37%; inhibition rate, Results (%) LLC ([13]; Table 3 (repeated screening)): 15.32%; inhibition at 50 µg/mL ([13]; Table 1): 8.97% |
| CC(C)C1CC23OC1(O)CC(=CN1CCNCC1)C2CCC3C (stereo not shown) [Compound 8, Curcumol piperazine hydrochloride] | 1.68 | 90.3 | 91.3 | 94.4 | 3.28 | 91.9 | 92 | 91.5 | 60.5 | 58.6 | 92 | 90.2 | 91.1 | < 50 | 4.5 | 2.3 | 0.59 | 0.81 | > 624 | 54.3 | inhibition at 50 µg/mL ([5]; Table 3 (repeated screening)): 55.9%; inhibition at 50 µg/mL ([8]; Table 3 (repeated screening)): 7.98%; inhibition at 50 µg/mL ([12]; Table 2 (repeated screening)): 50.5%; inhibition at 50 µg/mL ([12]; Table 3 (repeated screening)): 54.9%; inhibition at 50 µg/mL ([13]; Table 1): 12.1%; inhibition at 50 µg/mL ([13]; Table 2 (repeated screening)): 1.02%; inhibition at 50 µg/mL ([13]; Table 3 (repeated screening)): 3.12% |
